Assay results as given in paper PMC11714206, “Massively Parallel Screening of Toll/Interleukin‐1 Receptor (TIR)‐Derived Peptides Reveals Multiple Toll‐Like Receptors (TLRs)‐Targeting Immunomodulatory Peptides” (Advanced Science, 2024).
One block for each sequence: values may come before it.

Biological target: T1, MAL^TIR (Homo sapiens, UniProt P58753)
T1 construct: MAL (residues 79–221); 6xHis; made in house; host or cells: E. coli BL21 (DE3)
Assay: T‐Surf phage library (P8 and P3) selection against MAL^TIR, four rounds, NGS read counts
Format: binding
Settings: for P3_MAL Rank (after) / P3_MAL Rank (before): P3 library; for Population: 4th round of selection against MAL TIR, share of NGS reads; for P8_MAL Rank (after) / P8_MAL Rank (before): P8 library
Method in brief: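 Four panning rounds on TIR domain adsorbed at 5 µg mL^−1; binding 1 h at 20–22 °C, elution with 100 mM HCl. Output: NGS read counts of round‐4 pools versus naïve library.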

[1] = selection against MAL, rank after grouping
[2] = selection against MAL, rank before grouping
[3] = P3_MAL pool: P3 T-Surf phage library
[4] = 4R selection against MAL, rank after grouping
[5] = 4R selection against MAL, rank before grouping
[6] = P3_MAL: rank by count after grouping
[7] = P3_MAL: rank by count before grouping
[8] = selection against MAL TIR, rank by count after grouping
[9] = selection against MAL TIR, rank by count before grouping
[10] = P8_MAL: rank by count after grouping
[11] = P8_MAL: rank by count before grouping
[12] = P8_MAL pool: P8 T-Surf phage library
[13] = selection against MAL, rank by count after grouping
[14] = selection against MAL, rank by count before grouping

T1 sequence (P58753 79-221): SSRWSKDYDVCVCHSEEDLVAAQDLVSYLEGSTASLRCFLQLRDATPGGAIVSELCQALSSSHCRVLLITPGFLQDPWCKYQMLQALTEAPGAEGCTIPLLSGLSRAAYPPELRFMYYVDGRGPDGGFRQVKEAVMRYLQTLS

- Population [3]: 0.00451%
Sequence: PNLRTKVLNYLMRSKT

- P3_MAL Rank (after) [4]: 602
- P3_MAL Rank (before) [5]: 3516
Sequence: KWFWEKLRYALTYRPAT

- P3_MAL Rank (after) [8]: 194
- P3_MAL Rank (before) [9]: 1375
Sequence: YAFTGHLHCYLVQRGI

- Rank (after) [10]: 397
- Rank (before) [11]: 2600
Sequence: TFLGHLYNTLVHAGTH

- P8_MAL Rank (after) [4]: 670
- P8_MAL Rank (before) [5]: 1579
Sequence: AFFLAQLKSVLGNPTT

- P3_MAL Rank (after) [13]: 741
- P3_MAL Rank (before) [14]: 2707
Sequence: PNLRTKVLSYPMRTMT

- P3_MAL Rank (after) [4]: 620
- P3_MAL Rank (before) [5]: 3479
Sequence: NSFRERLRHLMAHSKM

- P8_MAL Rank (after) [8]: 211
- P8_MAL Rank (before) [9]: 2730
Sequence: KLLWVKFKFFLPSLSR

- P3_MAL Rank (after) [8]: 193
- P3_MAL Rank (before) [9]: 2405
Sequence: RGFLSHLRHLLQAKDP

- P3_MAL Rank (after) [4]: 605
- P3_MAL Rank (before) [5]: 2419
Sequence: RGFTSHLYHRIQRNSN

- P3_MAL Rank (after) [8]: 248
- P3_MAL Rank (before) [9]: 3718
Sequence: KSILDTEARIWGWLFA

- Rank (after) [10]: 431
- Rank (before) [11]: 2115
Sequence: LFFWESLKNVLGSDGR

- P3_MAL Rank (after) [8]: 266
- P3_MAL Rank (before) [9]: 2696
Sequence: PNLRTNVLNYLMRPKT

- P3_MAL Rank (after) [4]: 664
- P3_MAL Rank (before) [5]: 3635
Sequence: KQWLNAPTAAANLSGW

- Rank (after) [6]: 426
- Rank (before) [7]: 2762
Sequence: PKLRTKVLKYQMRTKT

- Rank (after) [10]: 438
- Rank (before) [11]: 1488
Sequence: YFLHFLLFSRPNRVY

- P8_MAL Rank (after) [13]: 699
- P8_MAL Rank (before) [14]: 2283
Sequence: RNNFIGHLYQAPNQSV

Second part, the sequence before the results:

Sequence: KERLHQWKLALTQAA
- P3_MAL Rank (after) [1]: 526
- P3_MAL Rank (before) [2]: 3601

Sequence: PNLRTQVQNYLLPNKT
- P3_MAL Rank (after) [1]: 524
- P3_MAL Rank (before) [2]: 2686

Sequence: WFYERLVGLILRETEG
- P8_MAL Rank (after) [4]: 660
- P8_MAL Rank (before) [5]: 1163

Sequence: KMQKWKEALHQFHSWV
- Rank (after) [6]: 108
- Rank (before) [7]: 233

Sequence: CFLQNLCYALTYRPAT
- P3_MAL Rank (after) [4]: 637
- P3_MAL Rank (before) [5]: 1215

Sequence: RNNYIGHLYQALYRNG
- P8_MAL Rank (after) [4]: 596
- P8_MAL Rank (before) [5]: 2297

Sequence: ALLYTFLINLTHPTNF
- Population [12]: 0.0034%

Sequence: YAFTGHLHRYLVQRGL
- Population [3]: 0.00376%

Sequence: AFLYTFLINLTHPTNL
- Population [12]: 0.00371%

Sequence: VLQKFISHLYDFLARK
- P3_MAL Rank (after) [8]: 262
- P3_MAL Rank (before) [9]: 761

Sequence: AFSNNEYKCVETALMN
- Rank (after) [6]: 467
- Rank (before) [7]: 1806

Sequence: WFYEPLLSMLLRATKV
- P8_MAL Rank (after) [13]: 706
- P8_MAL Rank (before) [14]: 1296

Sequence: LFFWESLKQLLRSVGR
- Population [12]: 0.0034%

Sequence: RSFRDRLWRHLQLNEK
- P3_MAL Rank (after) [1]: 506
- P3_MAL Rank (before) [2]: 2575

Sequence: TFLGHLYNALVQAGIP
- Population [12]: 0.00463%

Sequence: AFLYAFLISLTHTTTF
- P8_MAL Rank (after) [1]: 571
- P8_MAL Rank (before) [2]: 1798

Sequence: RLLKWQQAMHQFHRWV
- P3_MAL Rank (after) [1]: 563
- P3_MAL Rank (before) [2]: 2488

Sequence: WFYERLVSLMLRNTKV
- P8_MAL Rank (after) [1]: 540
- P8_MAL Rank (before) [2]: 1225

Sequence: YAFTGHLRRYLVLRGV
- P3_MAL Rank (after) [1]: 509
- P3_MAL Rank (before) [2]: 1369

Sequence: VRHTFAGYLYDALHRNRI
- Rank (after) [6]: 404
- Rank (before) [7]: 1703

Sequence: SFFDRLVSVILRDTNV
- P8_MAL Rank (after) [13]: 701
- P8_MAL Rank (before) [14]: 1441

Sequence: TFLATLYNALAQAGIH
- Rank (after) [10]: 449
- Rank (before) [11]: 2620

Sequence: YFLQVRLFNLLESDDR
- P8_MAL Rank (after) [4]: 600
- P8_MAL Rank (before) [5]: 1514

Sequence: WFFERLVRPILRGTQG
- P8_MAL Rank (after) [1]: 559
- P8_MAL Rank (before) [2]: 1113

Sequence: KPSVSGPEKSWHFYL
- P3_MAL Rank (after) [4]: 660
- P3_MAL Rank (before) [5]: 3467

Sequence: ALFWAQLKCVMGNPAM
- P8_MAL Rank (after) [13]: 705
- P8_MAL Rank (before) [14]: 1932

Sequence: NLIQGWLLYRLLKIEK
- P8_MAL Rank (after) [8]: 286
- P8_MAL Rank (before) [9]: 2678

Sequence: RSFREGLWRLLELRKQ
- P3_MAL Rank (after) [1]: 507
- P3_MAL Rank (before) [2]: 2627

Sequence: RLQEWRETLCQGHSRV
- P3_MAL Rank (after) [4]: 650
- P3_MAL Rank (before) [5]: 2550

Sequence: VEPTQGRKQLGAVENA
- P3_MAL Rank (after) [1]: 573
- P3_MAL Rank (before) [2]: 1683

Sequence: AFLYTFDQSDPSDQF
- P8_MAL Rank (after) [1]: 509
- P8_MAL Rank (before) [2]: 1822

Sequence: QLIQHWIELHQHQLHL
- P8_MAL Rank (after) [4]: 630
- P8_MAL Rank (before) [5]: 2348

Sequence: PNLRPKVRNYLIRTKT
- P3_MAL Rank (after) [1]: 532
- P3_MAL Rank (before) [2]: 2672

Sequence: LFFWASLKNLLRSAGS
- Rank (after) [10]: 389
- Rank (before) [11]: 2066

Sequence: RNFVAYLFQGLANKVI
- Rank (after) [10]: 427
- Rank (before) [11]: 2195

Sequence: SLRKKLVRNLIEEFKR
- P3_MAL Rank (after) [13]: 688
- P3_MAL Rank (before) [14]: 3100
